This passage reports IC50, half-life and CC50 results from ChEMBL document CHEMBL5344473, “Inhibition of N-type calcium channels by phenoxyaniline and sulfonamide analogues” (RSC Med Chem, 2024).

Data set [1] concerns the target Voltage-dependent N-type calcium channel subunit alpha-1B (Homo sapiens, UniProt Q00975). The data set can be described thus: Inhibition of Cav2.2 in human SH-SY5Y cells assessed as inhibition of calcium influx measured for 300 secs in presence of Cav1 blocker, nifedipine by FLIPR assay. The class given is cell-based.
Data set [2] concerns the target Voltage-dependent T-type calcium channel subunit alpha-1H (Homo sapiens, UniProt O95180). The data set is described as follows: Inhibition of human recombinant Cav3.2 alpha1 subunit expressed in HEK293T cells assessed as inhibition of calcium influx measured for 300 secs by FLIPR assay. The data set is classed as cell-based.
Data set [3] in a line: in vitro. To be noted: Sprague-Dawley, rat, plasma.
Data set [4] in a line: Cytotoxicity against African green monkey COS7 cells assessed as reduction in cell viability measured after 20 hrs by CellTiter-Blue reagent based fluorescence analysis. Conditions: chlorocebus aethiops.

Chain of Voltage-dependent N-type calcium channel subunit alpha-1B (Q00975 whole entry): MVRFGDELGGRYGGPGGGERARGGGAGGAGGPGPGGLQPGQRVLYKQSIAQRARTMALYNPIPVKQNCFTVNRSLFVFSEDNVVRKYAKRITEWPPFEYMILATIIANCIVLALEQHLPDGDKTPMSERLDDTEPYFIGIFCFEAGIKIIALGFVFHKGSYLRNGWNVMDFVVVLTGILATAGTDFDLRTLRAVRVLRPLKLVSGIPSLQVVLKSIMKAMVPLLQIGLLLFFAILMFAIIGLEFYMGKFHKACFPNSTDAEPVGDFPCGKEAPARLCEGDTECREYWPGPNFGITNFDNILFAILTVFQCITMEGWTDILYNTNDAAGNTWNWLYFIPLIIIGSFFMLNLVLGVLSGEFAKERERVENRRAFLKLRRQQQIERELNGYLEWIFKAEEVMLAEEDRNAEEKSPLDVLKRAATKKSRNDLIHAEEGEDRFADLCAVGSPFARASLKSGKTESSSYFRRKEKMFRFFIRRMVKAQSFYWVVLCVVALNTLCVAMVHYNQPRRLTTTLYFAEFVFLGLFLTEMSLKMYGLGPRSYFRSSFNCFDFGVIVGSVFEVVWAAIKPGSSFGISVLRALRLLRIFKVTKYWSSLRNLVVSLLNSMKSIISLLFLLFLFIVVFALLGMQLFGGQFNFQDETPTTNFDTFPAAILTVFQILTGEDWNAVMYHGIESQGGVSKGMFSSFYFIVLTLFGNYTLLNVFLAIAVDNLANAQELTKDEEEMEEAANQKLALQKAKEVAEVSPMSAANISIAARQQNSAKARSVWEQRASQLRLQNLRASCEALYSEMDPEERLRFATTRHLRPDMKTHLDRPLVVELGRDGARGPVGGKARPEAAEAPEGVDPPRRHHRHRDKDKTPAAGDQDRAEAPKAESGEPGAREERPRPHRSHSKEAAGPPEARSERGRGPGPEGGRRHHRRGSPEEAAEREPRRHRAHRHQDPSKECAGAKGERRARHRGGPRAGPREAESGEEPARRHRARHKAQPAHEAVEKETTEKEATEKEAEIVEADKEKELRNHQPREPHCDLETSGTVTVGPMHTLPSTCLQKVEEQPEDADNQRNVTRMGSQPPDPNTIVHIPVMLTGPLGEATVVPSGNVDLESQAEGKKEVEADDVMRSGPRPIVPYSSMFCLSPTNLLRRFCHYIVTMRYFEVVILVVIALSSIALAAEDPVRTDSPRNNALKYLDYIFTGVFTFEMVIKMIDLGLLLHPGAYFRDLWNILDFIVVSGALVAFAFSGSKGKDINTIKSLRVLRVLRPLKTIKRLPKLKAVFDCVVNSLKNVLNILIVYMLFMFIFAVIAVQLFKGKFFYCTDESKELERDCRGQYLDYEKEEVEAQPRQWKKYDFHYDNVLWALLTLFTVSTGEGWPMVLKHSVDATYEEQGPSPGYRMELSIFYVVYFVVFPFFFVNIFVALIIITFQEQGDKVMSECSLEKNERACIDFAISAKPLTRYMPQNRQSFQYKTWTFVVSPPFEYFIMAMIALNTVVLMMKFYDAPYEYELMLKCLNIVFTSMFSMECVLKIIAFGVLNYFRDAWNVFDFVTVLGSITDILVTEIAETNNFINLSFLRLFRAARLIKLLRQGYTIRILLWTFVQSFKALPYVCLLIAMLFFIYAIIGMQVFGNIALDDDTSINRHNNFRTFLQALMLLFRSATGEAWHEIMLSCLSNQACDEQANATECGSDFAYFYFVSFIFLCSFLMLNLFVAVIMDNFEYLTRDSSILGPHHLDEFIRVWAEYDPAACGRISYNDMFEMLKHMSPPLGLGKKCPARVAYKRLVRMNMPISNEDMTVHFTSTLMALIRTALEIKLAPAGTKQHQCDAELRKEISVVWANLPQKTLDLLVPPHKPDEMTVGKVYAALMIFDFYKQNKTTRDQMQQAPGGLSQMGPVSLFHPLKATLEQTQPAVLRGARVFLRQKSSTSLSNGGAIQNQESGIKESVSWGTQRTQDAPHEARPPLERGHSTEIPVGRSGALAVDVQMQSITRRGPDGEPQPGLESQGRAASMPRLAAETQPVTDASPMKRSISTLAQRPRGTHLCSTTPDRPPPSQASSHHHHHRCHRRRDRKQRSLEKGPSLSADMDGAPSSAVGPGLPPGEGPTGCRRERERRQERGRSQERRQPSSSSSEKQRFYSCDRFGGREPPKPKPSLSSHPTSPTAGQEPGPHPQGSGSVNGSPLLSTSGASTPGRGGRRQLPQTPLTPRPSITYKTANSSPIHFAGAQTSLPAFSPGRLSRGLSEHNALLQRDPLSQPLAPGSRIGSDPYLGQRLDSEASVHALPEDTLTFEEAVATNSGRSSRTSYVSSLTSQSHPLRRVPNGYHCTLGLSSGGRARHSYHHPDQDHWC
Chain of Voltage-dependent T-type calcium channel subunit alpha-1H (O95180 whole entry): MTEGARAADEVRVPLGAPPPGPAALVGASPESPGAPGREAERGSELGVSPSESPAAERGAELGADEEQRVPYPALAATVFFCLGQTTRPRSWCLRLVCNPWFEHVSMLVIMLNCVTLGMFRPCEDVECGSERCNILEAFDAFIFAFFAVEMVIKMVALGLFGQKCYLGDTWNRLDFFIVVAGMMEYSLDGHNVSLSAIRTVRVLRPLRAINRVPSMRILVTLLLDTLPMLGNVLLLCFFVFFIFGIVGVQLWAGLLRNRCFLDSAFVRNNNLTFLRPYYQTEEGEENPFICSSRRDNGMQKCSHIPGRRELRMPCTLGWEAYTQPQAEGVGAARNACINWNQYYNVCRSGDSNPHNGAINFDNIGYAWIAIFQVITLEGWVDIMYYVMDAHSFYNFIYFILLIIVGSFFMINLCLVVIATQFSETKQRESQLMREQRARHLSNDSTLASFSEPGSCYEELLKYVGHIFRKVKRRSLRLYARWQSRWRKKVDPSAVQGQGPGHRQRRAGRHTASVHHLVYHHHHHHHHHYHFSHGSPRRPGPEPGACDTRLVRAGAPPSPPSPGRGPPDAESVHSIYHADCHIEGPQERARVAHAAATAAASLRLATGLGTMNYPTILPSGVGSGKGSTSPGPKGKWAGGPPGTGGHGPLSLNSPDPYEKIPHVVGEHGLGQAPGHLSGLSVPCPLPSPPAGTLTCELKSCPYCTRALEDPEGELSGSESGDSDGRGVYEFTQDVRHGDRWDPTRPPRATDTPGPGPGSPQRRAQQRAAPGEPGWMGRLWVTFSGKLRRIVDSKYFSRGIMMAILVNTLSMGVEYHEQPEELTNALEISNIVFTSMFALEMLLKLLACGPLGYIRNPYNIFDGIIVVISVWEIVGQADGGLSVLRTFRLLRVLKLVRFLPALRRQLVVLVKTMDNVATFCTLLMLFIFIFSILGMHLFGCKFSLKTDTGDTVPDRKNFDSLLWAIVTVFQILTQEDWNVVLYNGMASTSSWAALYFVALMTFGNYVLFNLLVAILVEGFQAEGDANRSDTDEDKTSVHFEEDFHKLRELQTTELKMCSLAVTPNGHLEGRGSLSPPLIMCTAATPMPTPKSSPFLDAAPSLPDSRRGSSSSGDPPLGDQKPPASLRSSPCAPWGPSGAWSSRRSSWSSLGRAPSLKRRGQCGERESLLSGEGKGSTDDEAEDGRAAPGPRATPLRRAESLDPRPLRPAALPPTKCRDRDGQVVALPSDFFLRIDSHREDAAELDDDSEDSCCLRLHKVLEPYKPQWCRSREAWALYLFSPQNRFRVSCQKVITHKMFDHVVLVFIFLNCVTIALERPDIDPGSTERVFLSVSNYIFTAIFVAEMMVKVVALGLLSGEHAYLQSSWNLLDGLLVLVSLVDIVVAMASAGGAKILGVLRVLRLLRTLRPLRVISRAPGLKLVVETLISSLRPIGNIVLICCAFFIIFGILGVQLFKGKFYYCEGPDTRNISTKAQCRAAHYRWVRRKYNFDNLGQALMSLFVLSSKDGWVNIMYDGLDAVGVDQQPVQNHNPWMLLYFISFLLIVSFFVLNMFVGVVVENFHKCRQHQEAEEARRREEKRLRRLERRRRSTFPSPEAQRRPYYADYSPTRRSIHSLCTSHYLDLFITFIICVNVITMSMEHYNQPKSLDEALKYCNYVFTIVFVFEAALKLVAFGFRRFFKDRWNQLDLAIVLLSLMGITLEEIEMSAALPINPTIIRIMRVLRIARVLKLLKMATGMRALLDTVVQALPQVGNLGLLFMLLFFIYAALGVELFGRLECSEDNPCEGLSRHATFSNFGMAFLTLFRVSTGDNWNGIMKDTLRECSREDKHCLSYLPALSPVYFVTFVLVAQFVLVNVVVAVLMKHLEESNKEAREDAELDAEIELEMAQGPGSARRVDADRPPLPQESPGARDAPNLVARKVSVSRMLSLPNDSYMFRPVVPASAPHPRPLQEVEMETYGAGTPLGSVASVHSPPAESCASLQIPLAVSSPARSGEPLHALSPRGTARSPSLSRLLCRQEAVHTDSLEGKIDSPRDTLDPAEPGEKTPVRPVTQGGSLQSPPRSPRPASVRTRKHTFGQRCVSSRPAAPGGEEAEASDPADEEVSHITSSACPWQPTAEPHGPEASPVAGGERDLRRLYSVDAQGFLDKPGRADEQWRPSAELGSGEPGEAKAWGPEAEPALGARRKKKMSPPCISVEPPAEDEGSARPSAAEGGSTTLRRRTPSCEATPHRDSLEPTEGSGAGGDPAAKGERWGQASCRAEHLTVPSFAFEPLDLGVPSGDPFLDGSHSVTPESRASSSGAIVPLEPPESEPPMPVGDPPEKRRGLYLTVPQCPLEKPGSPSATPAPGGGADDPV

Regarding `Fc1ccc(Oc2ccc(NCc3ccc(OCCCn4ccnc4)cc3)cc2)cc1`, the results for the IC50 in data set [1] and in data set [2] were 68 µM and 337 µM, respectively. In data set [3], this compound registered a half-life at 150 µM above 60 h.

In data set [3], `CN(C)CCCOc1ccc(C(=O)Nc2ccccc2Oc2ccc(F)cc2)cc1` showed a half-life at 150 µM of around 1.5 h.

With `CN(C)CCCOc1ccc(S(=O)(=O)Nc2cccc(Oc3ccccc3)c2)cc1`, the 50% inhibitory concentration (IC50) in data set [1] was 10 µM; in data set [2], 142 µM. In data set [3], the half-life at 150 µM was above 60 h.

As to `N#Cc1ccc(Oc2ccc(NCc3ccc(OCCCn4ccnc4)cc3)cc2)cc1`, the IC50 in data set [1] came to 75 µM; in data set [2] it was 371 µM. The compound also came in with a half-life at 150 µM in data set [3] above 60 h.

Regarding `FC(F)(F)c1ccc(Oc2ccccc2NCc2ccc(OCCCN3CCCC3)cc2)cc1`, the IC50 in data set [1] came to 51 µM; in data set [2], 110 µM.

As to `c1ccc(Oc2cccc(NCc3ccc(OCCCN4CCCCC4)cc3)c2)cc1`, the results for the IC50 in data set [1] and in data set [2] were 63 µM and 200 µM, respectively. Further, in data set [3], the half-life at 150 µM was above 60 h.

For the compound `N#Cc1ccc(Oc2ccc(NCc3ccc(OCCCN4CCCCC4)cc3)cc2)cc1`, the 50% inhibitory concentration (IC50) was 19 µM in data set [1] and 22 µM in data set [2]. The half-life at 150 µM in data set [3] is above 60 h.

Regarding `CN(C)CCCOc1ccc(C(=O)Nc2ccccc2Oc2ccccc2)cc1`, the CC50 at 20 h in data set [4] was above 100 µM.

As for `Fc1ccc(Oc2ccc(NCc3ccc(OCCCN4CCCC4)cc3)cc2)cc1`, the IC50 in data set [1] is 48 µM; in data set [2], 208 µM. The same compound came in with a half-life at 150 µM in data set [3] above 60 h.

As for `CC(C)[C@H]1c2ccc(F)cc2CC[C@@]1(CCN(C)CCCc1nc2ccccc2[nH]1)OC(=O)C1CC1`, the IC50 in data set [1] was found to be 24.3 µM.

Turning to `CNCCCOc1ccc(CNc2ccccc2Oc2ccc(C(F)(F)F)cc2)cc1`, the IC50 in data set [1] was 58 µM; in data set [2], 204 µM. Also, in data set [3], the half-life at 150 µM is above 60 h.

Consider `FC(F)(F)c1ccc(Oc2ccc(NCc3ccc(OCCCN4CCCC4)cc3)cc2)cc1`, for which the IC50 in data set [1] turned out to be 50 µM; in data set [2] it was 182 µM. The same compound registered a half-life at 150 µM in data set [3] above 60 h.

For `c1ccc(Oc2ccc(NCc3ccc(OCCCN4CCCC4)cc3)cc2)cc1`, the IC50 in data set [1] was determined as 36 µM; in data set [2], 201 µM. The half-life at 150 µM in data set [3] was above 60 h.

As for `CN(C)CCCOc1ccc(CNc2ccc(Oc3ccc(F)cc3)cc2)cc1`, the IC50 came out at 39 µM in data set [1] and 227 µM in data set [2]. Besides, in data set [3], the half-life at 150 µM is above 60 h.

For `Fc1ccc(Oc2ccccc2NCc2ccc(OCCCn3ccnc3)cc2)cc1`, the IC50 in data set [1] turned out to be 33 µM; in data set [2], 196 µM. The same compound had a half-life at 150 µM in data set [3] above 60 h.

In the case of `N#Cc1ccc(Oc2ccc(NCc3ccc(OCCCN4CCCC4)cc3)cc2)cc1`, the IC50 in data set [1] came to 28 µM; in data set [2] it was 146 µM. For the same compound, in data set [3], the half-life at 150 µM is above 60 h.

For the compound `c1ccc(Oc2cccc(NCc3ccc(OCCCn4ccnc4)cc3)c2)cc1`, the IC50 in data set [1] is 68 µM; in data set [2], 258 µM. Besides, in data set [3], the half-life at 150 µM is above 60 h.

`Fc1ccc(Oc2cccc(NCc3ccc(OCCCN4CCCCC4)cc3)c2)cc1`: the IC50 came out at 20 µM in data set [1] and 292 µM in data set [2]. Further, the half-life at 150 µM in data set [3] was above 60 h.
